# Results as given in PubChem BioAssay (NCI).
#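 Results reflect a 48-hour exposure of cells in 96-well plates to compound at five concentrations. TGI marks complete inhibition of growth.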
# What was measured:
# Assay in all cases: NCI anticancer screen, dose series, 48 h
# SF-539 CNS = tested on: SF-539 CNS
# K-562 leukemia = tested on: K-562 leukemia
# SK-MEL-5 melanoma = tested on: SK-MEL-5 melanoma
# MCF7 breast = tested on: MCF7 breast
# HOP-92 NSCLC = tested on: HOP-92 NSCLC
# NCI-H23 lung = tested on: NCI-H23 lung
# HT29 colon = tested on: HT29 colon
# TK-10 renal = tested on: TK-10 renal
# MDA-N = tested on: MDA-N
# MALME-3M melanoma = tested on: MALME-3M melanoma
# UACC-62 melanoma = tested on: UACC-62 melanoma
# OVCAR-3 ovarian = tested on: OVCAR-3 ovarian
# U251 CNS = tested on: U251 CNS
# PC-3 prostate = tested on: PC-3 prostate
# T-47D breast = tested on: T-47D breast
# EKVX NSCLC = tested on: EKVX NSCLC
# XF 498 CNS = tested on: XF 498 CNS
# CAKI-1 renal = tested on: CAKI-1 renal
# MDA-MB-231 breast = tested on: MDA-MB-231 breast
# OVCAR-5 ovarian = tested on: OVCAR-5 ovarian
# SK-MEL-2 melanoma = tested on: SK-MEL-2 melanoma
# SF-295 CNS = tested on: SF-295 CNS
# RXF 393 renal = tested on: RXF 393 renal
# SF-268 CNS = tested on: SF-268 CNS
# HL-60(TB) leukemia = tested on: HL-60(TB) leukemia
# NCI-H460 lung = tested on: NCI-H460 lung
# HS 578T breast = tested on: HS 578T breast
# UO-31 renal = tested on: UO-31 renal
# IGROV1 ovarian = tested on: IGROV1 ovarian
# M19-MEL melanoma = tested on: M19-MEL melanoma
# HOP-18 NSCLC = tested on: HOP-18 NSCLC
# DMS 273 small cell lung = tested on: DMS 273 small cell lung
# KM12 colon = tested on: KM12 colon
# SNB-19 CNS = tested on: SNB-19 CNS
# HCT-15 colon = tested on: HCT-15 colon
# LXFL 529 NSCLC = tested on: LXFL 529 NSCLC
# CCRF-CEM leukemia = tested on: CCRF-CEM leukemia
# M14 melanoma = tested on: M14 melanoma
# LOX IMVI melanoma = tested on: LOX IMVI melanoma
# KM20L2 colon = tested on: KM20L2 colon
# SN12C renal = tested on: SN12C renal
# UACC-257 melanoma = tested on: UACC-257 melanoma
# BT-549 breast = tested on: BT-549 breast
# A549 NSCLC = tested on: A549 NSCLC
# OVCAR-4 ovarian = tested on: OVCAR-4 ovarian
# HCT-116 colon = tested on: HCT-116 colon
# DLD-1 colon = tested on: DLD-1 colon
# MDA-MB-435 = tested on: MDA-MB-435
# RPMI-8226 leukemia = tested on: RPMI-8226 leukemia
# ACHN renal = tested on: ACHN renal
# A498 renal = tested on: A498 renal
# COLO 205 colon = tested on: COLO 205 colon
# SNB-75 CNS = tested on: SNB-75 CNS
# SNB-78 CNS = tested on: SNB-78 CNS
# HOP-62 NSCLC = tested on: HOP-62 NSCLC
# NCI-H226 lung = tested on: NCI-H226 lung
# SK-OV-3 ovarian = tested on: SK-OV-3 ovarian
# SW-620 colon = tested on: SW-620 colon
# SR leukemia = tested on: SR leukemia
# DU-145 prostate = tested on: DU-145 prostate
# 786-0 renal = tested on: 786-0 renal
# MOLT-4 leukemia = tested on: MOLT-4 leukemia
# SK-MEL-28 melanoma = tested on: SK-MEL-28 melanoma
# NCI-H522 lung = tested on: NCI-H522 lung
# HCC-2998 colon = tested on: HCC-2998 colon
# OVCAR-8 ovarian = tested on: OVCAR-8 ovarian
# RXF-631 renal = tested on: RXF-631 renal
smiles,measurement,setting,value
C=C1C(=O)OC2C1CCC(C)C1C=CC(=O)C12C (configuration not stated),TGI,SF-539 CNS,8.33 µM
same,TGI,K-562 leukemia,11.3 µM
same,TGI,SK-MEL-5 melanoma,12 µM
same,TGI,MCF7 breast,16.5 µM
same,TGI,HOP-92 NSCLC,13.3 µM
same,TGI,NCI-H23 lung,10.2 µM
same,TGI,HT29 colon,4.53 µM
same,TGI,TK-10 renal,10.6 µM
same,TGI,MDA-N,3.88 µM
same,TGI,MALME-3M melanoma,7.47 µM
same,TGI,UACC-62 melanoma,4.11 µM
same,TGI,OVCAR-3 ovarian,3.37 µM
same,TGI,U251 CNS,29.5 µM
same,TGI,PC-3 prostate,17.3 µM
same,TGI,T-47D breast,4.88 µM
same,TGI,EKVX NSCLC,25.2 µM
same,TGI,XF 498 CNS,13.4 µM
same,TGI,CAKI-1 renal,6.75 µM
same,TGI,MDA-MB-231 breast,4.83 µM
same,TGI,OVCAR-5 ovarian,13.8 µM
same,TGI,SK-MEL-2 melanoma,17.5 µM
same,TGI,SF-295 CNS,18.1 µM
same,TGI,RXF 393 renal,4.39 µM
same,TGI,SF-268 CNS,39.5 µM
same,TGI,HL-60(TB) leukemia,4.85 µM
same,TGI,NCI-H460 lung,18.9 µM
same,TGI,HS 578T breast,15.4 µM
same,TGI,UO-31 renal,9.26 µM
same,TGI,IGROV1 ovarian,19.4 µM
same,TGI,M19-MEL melanoma,14.4 µM
same,TGI,HOP-18 NSCLC,20.7 µM
same,TGI,DMS 273 small cell lung,23.5 µM
same,TGI,KM12 colon,5.96 µM
same,TGI,SNB-19 CNS,46.1 µM
same,TGI,HCT-15 colon,4.11 µM
same,TGI,LXFL 529 NSCLC,3.35 µM
same,TGI,CCRF-CEM leukemia,8.54 µM
same,TGI,M14 melanoma,4.85 µM
same,TGI,LOX IMVI melanoma,5.25 µM
same,TGI,KM20L2 colon,14.6 µM
same,TGI,SN12C renal,13.5 µM
same,TGI,UACC-257 melanoma,4.61 µM
same,TGI,BT-549 breast,3.46 µM
same,TGI,A549 NSCLC,41.9 µM
same,TGI,OVCAR-4 ovarian,16.6 µM
same,TGI,HCT-116 colon,3.91 µM
same,TGI,DLD-1 colon,4.19 µM
same,TGI,MDA-MB-435,3.34 µM
same,TGI,RPMI-8226 leukemia,> 25.3 µM
same,TGI,ACHN renal,3.25 µM
same,TGI,A498 renal,26.7 µM
same,TGI,COLO 205 colon,5.74 µM
same,TGI,SNB-75 CNS,26.8 µM
same,TGI,SNB-78 CNS,23.3 µM
same,TGI,HOP-62 NSCLC,41.1 µM
same,TGI,NCI-H226 lung,13 µM
same,TGI,SK-OV-3 ovarian,98.8 µM
same,TGI,SW-620 colon,4.68 µM
same,TGI,SR leukemia,9.73 µM
same,TGI,DU-145 prostate,7.36 µM
same,TGI,786-0 renal,4.19 µM
same,TGI,MOLT-4 leukemia,10.4 µM
same,TGI,SK-MEL-28 melanoma,4.93 µM
same,TGI,NCI-H522 lung,2390 nM
same,TGI,HCC-2998 colon,26.6 µM
NC(=O)CCC(Nc1c2ccccc2nc2ccccc12)C(=O)O (configuration not stated),TGI,SF-539 CNS,> 100 µM
same,TGI,K-562 leukemia,> 100 µM
same,TGI,HOP-92 NSCLC,> 100 µM
same,TGI,NCI-H23 lung,> 100 µM
same,TGI,HT29 colon,> 100 µM
same,TGI,TK-10 renal,> 100 µM
same,TGI,MALME-3M melanoma,> 100 µM
same,TGI,OVCAR-3 ovarian,> 100 µM
same,TGI,U251 CNS,> 100 µM
same,TGI,EKVX NSCLC,> 100 µM
same,TGI,CAKI-1 renal,> 100 µM
same,TGI,OVCAR-5 ovarian,> 100 µM
same,TGI,SK-MEL-2 melanoma,> 100 µM
same,TGI,SF-295 CNS,> 100 µM
same,TGI,OVCAR-8 ovarian,> 100 µM
same,TGI,RXF 393 renal,> 100 µM
same,TGI,SF-268 CNS,> 100 µM
same,TGI,HL-60(TB) leukemia,> 100 µM
same,TGI,NCI-H460 lung,> 100 µM
same,TGI,M19-MEL melanoma,> 100 µM
same,TGI,DMS 273 small cell lung,> 100 µM
same,TGI,KM12 colon,> 100 µM
same,TGI,HCT-15 colon,> 100 µM
same,TGI,LXFL 529 NSCLC,> 100 µM
same,TGI,CCRF-CEM leukemia,> 100 µM
same,TGI,M14 melanoma,> 100 µM
same,TGI,LOX IMVI melanoma,> 100 µM
same,TGI,KM20L2 colon,> 100 µM
same,TGI,SN12C renal,> 100 µM
same,TGI,UACC-257 melanoma,> 100 µM
same,TGI,A549 NSCLC,> 100 µM
same,TGI,OVCAR-4 ovarian,80.8 µM
same,TGI,HCT-116 colon,> 100 µM
same,TGI,DLD-1 colon,> 100 µM
same,TGI,RPMI-8226 leukemia,> 100 µM
same,TGI,ACHN renal,> 100 µM
same,TGI,COLO 205 colon,> 100 µM
same,TGI,SNB-75 CNS,> 100 µM
same,TGI,NCI-H226 lung,> 100 µM
same,TGI,RXF-631 renal,> 100 µM
same,TGI,SW-620 colon,> 100 µM
same,TGI,SR leukemia,> 100 µM
same,TGI,786-0 renal,> 100 µM
same,TGI,MOLT-4 leukemia,> 100 µM
same,TGI,SK-MEL-28 melanoma,> 100 µM
same,TGI,NCI-H522 lung,> 100000 nM
same,TGI,HCC-2998 colon,> 100 µM
